Publication PMC11859928, “Design, Synthesis, and Antiproliferative Activity of Novel Indole/1,2,4-Triazole Hybrids as Tubulin Polymerization Inhibitors” (Pharmaceuticals, 2025)

Columns and labels:
Test in all cases: NCI one-dose assay
786-0 = assay type: cell-based, human; details: Homo sapiens, 786-0, 786-0, Renal cancer, read-out: Cell growth inhibition %
Protocol: (§1) The National Cancer Institute (NCI), Bethesda, USA, selected the final compounds 6a–j and 7a–j for in vitro anticancer screening. An initial in vitro single-dose anticancer experiment was performed with the entire NCI 60 cell lines derived from nine tumor subpanel cancer cell lines. The results for each compound were illustrated as a mean graph showing the percentage growth of treated cells compared to untreated control cells (see Supplementary Materials).
(§2) The NCI anticancer screening process has been thoroughly detailed. The Drug Evaluation Branch of the National Cancer Institute in Bethesda, […], USA, established the procedure and conducted the anticancer assay on 60 human tumor cell lines from nine neoplastic cancers.

UO-31 = assay type: cell-based, human; details: for inhibition at 10 µM: Homo sapiens, UO-31, UO-31, Renal cancer, read-out: Cell growth inhibition %
Protocol: as §1, §2

HOP-92 = assay type: cell-based, human; details: Homo sapiens, HOP-92, HOP-92, Non-small cell lung cancer, read-out: Cell growth inhibition %
Protocol: as §1, §2

MDA-MB-435 = assay type: cell-based; details: Homo sapiens, MDA-MB-435, Melanoma, read-out: Cell growth inhibition %
Protocol: as §1, §2

COLO 205 = assay type: cell-based; details: Homo sapiens, COLO 205, Colon cancer, read-out: Cell growth inhibition %
Protocol: as §1, §2

HL-60(TB) = assay type: cell-based; details: Homo sapiens, Leukemia, read-out: Cell growth inhibition %
Protocol: as §1, §2

MDA-MB-231/ATCC = assay type: cell-based; details: Homo sapiens, Breast cancer, read-out: Cell growth inhibition %
Protocol: as §1, §2

HOP-62 = assay type: cell-based; details: Homo sapiens, HOP-62, Non-small cell lung cancer, read-out: Cell growth inhibition %
Protocol: as §1, §2

UACC-257 = assay type: cell-based; details: Homo sapiens, UACC-257, Melanoma, read-out: Cell growth inhibition %
Protocol: as §1, §2

K-562 = assay type: cell-based; details: Homo sapiens, K562, K-562, Leukemia, read-out: Cell growth inhibition %
Protocol: as §1, §2

U251 = assay type: cell-based; details: Homo sapiens, U-251, U251, CNS cancer, read-out: Cell growth inhibition %
Protocol: as §1, §2

HCT-15 = assay type: cell-based; details: Homo sapiens, HCT-15, Colon cancer, read-out: Cell growth inhibition %
Protocol: as §1, §2

M14 = assay type: cell-based; details: Homo sapiens, M14, Melanoma, read-out: Cell growth inhibition %
Protocol: as §1, §2

NCI-H322M = assay type: cell-based; details: Homo sapiens, Non-small cell lung cancer, read-out: Cell growth inhibition %
Protocol: as §1, §2

HCC-2998 = assay type: cell-based; details: Homo sapiens, HCC-2998, Colon cancer, read-out: Cell growth inhibition %
Protocol: as §1, §2

CAKI-1 = assay type: cell-based; details: Homo sapiens, CAKI-1, Renal cancer, read-out: Cell growth inhibition %
Protocol: as §1, §2

A549/ATCC = assay type: cell-based; details: Homo sapiens, Non-small cell lung cancer, read-out: Cell growth inhibition %
Protocol: as §1, §2

EKVX = assay type: cell-based; details: Homo sapiens, Non-small cell lung cancer, read-out: Cell growth inhibition %
Protocol: as §1, §2

OVCAR-3 = assay type: cell-based; details: Homo sapiens, OVCAR-3, Ovarian cancer, read-out: Cell growth inhibition %
Protocol: as §1, §2

HS 578 T = assay type: cell-based; details: Homo sapiens, Breast cancer, read-out: Cell growth inhibition %
Protocol: as §1, §2

MOLT-4 = assay type: cell-based; details: Homo sapiens, MOLT-4, Leukemia, read-out: Cell growth inhibition %
Protocol: as §1, §2

HCT-116 = assay type: cell-based; details: Homo sapiens, HCT-116, Colon cancer, read-out: Cell growth inhibition %
Protocol: as §1, §2

HT29 = assay type: cell-based; details: Homo sapiens, HT-29, HT29, Colon cancer, read-out: Cell growth inhibition %
Protocol: as §1, §2

SF-539 = assay type: cell-based; details: Homo sapiens, SF-539, CNS cancer, read-out: Cell growth inhibition %
Protocol: as §1, §2

CCRF-CEM = assay type: cell-based; details: Homo sapiens, Leukemia, read-out: Cell growth inhibition %
Protocol: as §1, §2

OVCAR-8 = assay type: cell-based; details: Homo sapiens, OVCAR-8, Ovarian cancer, read-out: Cell growth inhibition %
Protocol: as §1, §2

SK-MEL-5 = assay type: cell-based; details: Homo sapiens, SK-MEL-5, Melanoma, read-out: Cell growth inhibition %
Protocol: as §1, §2

SF-268 = assay type: cell-based; details: Homo sapiens, SF-268, CNS cancer, read-out: Cell growth inhibition %
Protocol: as §1, §2

SF-295 = assay type: cell-based; details: Homo sapiens, SF-295, CNS cancer, read-out: Cell growth inhibition %
Protocol: as §1, §2

T-47D = assay type: cell-based; details: Homo sapiens, T47D, Breast cancer, read-out: Cell growth inhibition %
Protocol: as §1, §2

UACC-62 = assay type: cell-based; details: Homo sapiens, UACC-62, Melanoma, read-out: Cell growth inhibition %
Protocol: as §1, §2

RPMI-8226 = assay type: cell-based; details: Homo sapiens, RPMI-8226, Leukemia, read-out: Cell growth inhibition %
Protocol: as §1, §2

SNB-75 = assay type: cell-based; details: Homo sapiens, SNB-75, CNS cancer, read-out: Cell growth inhibition %
Protocol: as §1, §2

SK-MEL-2 = assay type: cell-based; details: Homo sapiens, SK-MEL-2, Melanoma, read-out: Cell growth inhibition %
Protocol: as §1, §2

KM12 = assay type: cell-based; details: Homo sapiens, KM12, Colon cancer, read-out: Cell growth inhibition %
Protocol: as §1, §2

SW-620 = assay type: cell-based; details: Homo sapiens, SW-620, Colon cancer, read-out: Cell growth inhibition %
Protocol: as §1, §2

Compound	inhibition at 10 µM (786-0) [%]	inhibition at 10 µM (UO-31) [%]	inhibition at 10 µM (HOP-92) [%]	inhibition at 10 µM (MDA-MB-435) [%]	inhibition at 10 µM (COLO 205) [%]	inhibition at 10 µM (HL-60(TB)) [%]	inhibition at 10 µM (MDA-MB-231/ATCC) [%]	inhibition at 10 µM (HOP-62) [%]	inhibition at 10 µM (UACC-257) [%]	inhibition at 10 µM (K-562) [%]	inhibition at 10 µM (U251) [%]	inhibition at 10 µM (HCT-15) [%]	inhibition at 10 µM (M14) [%]	inhibition at 10 µM (NCI-H322M) [%]	inhibition at 10 µM (HCC-2998) [%]	inhibition at 10 µM (CAKI-1) [%]	inhibition at 10 µM (A549/ATCC) [%]	inhibition at 10 µM (EKVX) [%]	inhibition at 10 µM (OVCAR-3) [%]	inhibition at 10 µM (HS 578 T) [%]	further results
O=C(CSc1nnc(-c2c[nH]c3ccccc23)n1-c1ccccc1)c1ccc(Cl)cc1 [Compound 6j, 2-((5-(1H-indol-3-yl)-4-phenyl-4H-1,2,4-triazol-3-yl)thio)-1-(4-chlorophenyl) Ethenone]	55.1	45.2	35	20.8	57.4	11.1	48.3	53	27.7	31	69.9	26.7	19.4	41.3	21.9	35.5	62.5	74.4	26.1	66.8	inhibition at 10 µM (MOLT-4): -3.56%; inhibition at 10 µM (HCT-116): 54.2%; inhibition at 10 µM (HT29): 57.4%; inhibition at 10 µM (SF-539): 50.5%; inhibition at 10 µM (CCRF-CEM): 7.26%; inhibition at 10 µM (OVCAR-8): 75.5%; inhibition at 10 µM (SK-MEL-5): 21.8%; inhibition at 10 µM (SF-268): 30.6%; inhibition at 10 µM (SF-295): 45%; inhibition at 10 µM (T-47D): 45.4%; inhibition at 10 µM (UACC-62): 47.2%; inhibition at 10 µM (RPMI-8226): 16.8%; inhibition at 10 µM (SNB-75): 45.3%; inhibition at 10 µM (SK-MEL-2): 66.3%; inhibition at 10 µM (KM12): 21.3%; inhibition at 10 µM (SW-620): 29.7%
Cc1ccc(C(=O)CSc2nnc(-c3c[nH]c4ccccc34)n2-c2ccccc2)cc1 [Compound 6h, 2-((5-(1H-Indol-3-yl)-4-phenyl-4H-1,2,4-triazol-3-yl)thio)-1-(p-tolyl)ethenone]	135	69.7	108	61.4	25	56.6	102	92.2	22.7	72.8	90.2	56.2	48.9	25.1	33.6	87.6	46.7	47	34.8	101	inhibition at 10 µM (MOLT-4): 38.3%; inhibition at 10 µM (HCT-116): 92.3%; inhibition at 10 µM (HT29): 92.9%; inhibition at 10 µM (SF-539): 77.9%; inhibition at 10 µM (CCRF-CEM): 39.2%; inhibition at 10 µM (OVCAR-8): 88.7%; inhibition at 10 µM (SK-MEL-5): 67.1%; inhibition at 10 µM (SF-268): 70.3%; inhibition at 10 µM (SF-295): 88.9%; inhibition at 10 µM (T-47D): 53.3%; inhibition at 10 µM (UACC-62): 76.1%; inhibition at 10 µM (RPMI-8226): 41.1%; inhibition at 10 µM (SNB-75): 101%; inhibition at 10 µM (SK-MEL-2): 15.3%; inhibition at 10 µM (KM12): 49%; inhibition at 10 µM (SW-620): 81%
C=CCn1c(SC/C(=N\O)c2ccc(C)cc2)nnc1-c1c[nH]c2ccccc12 [Compound 7c, (Z)-2-((4-allyl-5-(1H-indol-3-yl)-4H-1,2,4-triazol-3-yl)thio)-1-(p-tolyl)ethanone Oxime]	-2.2	35	7.98	-2.07	-6.48	10	4.01	8.72	-6.62	13.3	-2.94	11.3	5.59	5.67	1.5	20.2	4.9	17.7	-6.11	6.55	Cell growth inhibition % (UO-31; UO-31, Renal cancer, 10 µM): 34.99%; inhibition at 10 µM (MOLT-4): 20.4%; inhibition at 10 µM (HCT-116): 22.3%; inhibition at 10 µM (HT29): -4.09%; inhibition at 10 µM (SF-539): -1.42%; inhibition at 10 µM (CCRF-CEM): 2.91%; inhibition at 10 µM (OVCAR-8): 8.49%; inhibition at 10 µM (SK-MEL-5): 11.1%; inhibition at 10 µM (SF-268): 3.63%; inhibition at 10 µM (SF-295): 15.1%; inhibition at 10 µM (T-47D): 26.5%; inhibition at 10 µM (UACC-62): 30.9%; inhibition at 10 µM (RPMI-8226): 8.76%; inhibition at 10 µM (SNB-75): 2.58%; inhibition at 10 µM (SK-MEL-2): 1.01%; inhibition at 10 µM (KM12): 0.27%; inhibition at 10 µM (SW-620): 4.06%
O=C(CSc1nnc(-c2c[nH]c3ccccc23)n1-c1ccccc1)c1ccc(Br)cc1 [Compound 6i, 2-((5-(1H-Indol-3-yl)-4-phenyl-4H-1,2,4-triazol-3-yl)thio)-1-(4-bromophenyl) Ethenone]	17.6	74	71.9	59.1	86.5	55.5	34	26.4	47.5	18	38.4	56	49	54.3	68.3	55.7	70.1	89.2	57.5	47.7	inhibition at 10 µM (MOLT-4): 7.77%; inhibition at 10 µM (HCT-116): 45.7%; inhibition at 10 µM (HT29): 42.6%; inhibition at 10 µM (SF-539): 38%; inhibition at 10 µM (CCRF-CEM): 13.6%; inhibition at 10 µM (OVCAR-8): 56.5%; inhibition at 10 µM (SK-MEL-5): 82.8%; inhibition at 10 µM (SF-268): 50.9%; inhibition at 10 µM (SF-295): 66.3%; inhibition at 10 µM (T-47D): 78%; inhibition at 10 µM (UACC-62): 64.8%; inhibition at 10 µM (RPMI-8226): 45.6%; inhibition at 10 µM (SNB-75): 61.2%; inhibition at 10 µM (SK-MEL-2): 119%; inhibition at 10 µM (KM12): 65.4%; inhibition at 10 µM (SW-620): 20.2%
